Assay results taken from patent publication US10369089B2, “Iron oxide nanoparticles and methods of use thereof” (THE TRUSTEES OF THE UNIVERSITY OF PENNSYLVANIA, priority 2015, dated 2019).

Assays:
[1] = system: gingival and palatal tissues; set-up: species or system Sprague-Dawley rats; conditions: rat, in vivo
Text: Each group was provided with the National Institutes of Health cariogenic diet 2000 and 5% sucrose water ad libitum. The experiment proceeded for 3 weeks. All animals were weighed weekly and their physical appearance was noted daily. All animals gained weight equally among the experimental groups and remained in good health during the experimental period. At the end of the experimental period, the animals were sacrificed and the jaws were surgically removed and dissected. All of the jaws were defleshed and the teeth were prepared for caries scoring according to Larson's modification of Keyes' system disease (see Larson, Animal models in cariology: symposium and workshop proceedings special supplement of microbiology abstracts, 1981; Bowen, Odontology, 2013; […] et al., Infect Immun, 2014; Horev, ACS Nano, 2015). Determination of the caries score of the codified jaws was performed by one calibrated examiner. Furthermore, both the gingival and palatal tissues were collected and processed for hematoxylin and eosin (HE) staining for histopathological analysis.

[2] = system: S. mutans biofilms; assay: Biofilm disruption after twice daily topical treatment (confocal microscopy); assay type: cell-based, Streptococcus mutans UA159; conditions: CAT-NP 0.5 mg/ml, H2O2 1%, in vitro
Text: To determine the retention and the spatial distribution of CAT-NPs within an intact biofilm 3D architecture, multiphoton confocal microscopy and computational analysis were used (Xiao et al., PLoS Pathog. 2012; Klein et al., J Vis Exp, 2011; Koo et al., J Bacteriol, 2010). The exopolysaccharides (EPS) (in red) were labeled using […] Alexa Fluor 647-labeled dextran conjugate (10 kDa; 647/668 nm; Molecular Probes Inc., Invitrogen Corp., Carlsbad, Calif., USA) and the bacterial cells (in green) were stained with 2.5 μM SYTO 9 (485/498 nm; Molecular Probes Inc.). The CAT-NPs (in white) were detected via their inherent non-linear optical property using multiphoton confocal microscopy (Xiao et al., PLoS Pathog, 2012; Klein et al., J Vis Exp, 2011; Liao et al., Adv Funct Mater, 2013; Koo et al., J Bacteriol, 2010; Liao et al., Adv Funct Mater, 2013). Imaging was performed using a Leica SP5 multiphoton confocal microscope with a 20× LPlan N (1.05 numerical aperture) water immersion objective lens. […] The confocal images were analyzed using software for simultaneous visualization and quantification of EPS, bacterial cells and CAT-NPs within the intact biofilms. […] COMSTAT and ImageJ were used for quantitative analysis as previously described (Xiao et al., PLoS Pathog. 2012; Klein et al., J Vis Exp. 2011; Koo et al., J Bacteriol, 2010). […]

[3] = Degradation of purified glucans produced by GtfB and GtfD; assay type: biochemical; conditions: 0.1 M NaOAc pH 4.5, 37° C., 30 min
Method: Given that free-radicals produced from H2O2 catalysis can also degrade polysaccharides in vitro (Gao et al., Nanoscale, 2014), the amount of EPS in the CAT-NP-treated biofilms was analyzed following exposure to H2O2. For assessment of EPS degradation, 100 μg of (insoluble or soluble) glucans produced by purified glucosyltransferases (GtfB or GtfD) (Koo et al., Antimicrob Agents Chemother, 2002) were mixed with each of the treatment solutions (in 0.1 M NaOAc, pH 4.5) and incubated at 37° C. for 30 min. The glucans were manufactured as follows. Each of the Gtf enzymes (10 U) were mixed with a sucrose substrate buffer (100 mM sucrose, 20 μM dextran 9,000, 50 mM KCl, 1.0 mM KPO4, 1.0 mM CaCl2 and 0.1 mM MgCl2, pH 6.5) and incubated for 4 h at 37° C. After incubation, the glucans produced were collected by centrifugation, washed and the total amounts were determined by standard phenol-sulfuric acid colorimetric assay (Koo et al., J Antimicrob Chemother, 2003; Koo et al., Antimicrob Agents Chemother, 2002). One hundred micrograms of glucan was mixed with each of the treatment solutions (total reaction volume of 300 μl in 0.1 M NaOAc, pH 4.5) and incubated at 37° C. for 30 min with rocking. After incubation, the amount of reducing sugars was determined by Somogyi-Nelson colorimetric assay.

[4] = system: dental caries; assay: Rodent model of dental caries; assay type: in vivo, Sprague-Dawley rats; conditions: rats, topical twice-daily for 3 weeks; vs. vehicle control
Method: In brief, animal experiments were performed on a well-established rodent model of dental caries (Bowen, Odontology, 2013; […] et al., Infect Immun, 2014; Horev, ACS Nano, 2015; Koo et al., J Dent Res, 2005). Briefly, Sprague-Dawley rats, 15 days old, were purchased with their dams from Harlan Laboratories (Madison, Wis., USA) and screened for infection with S. mutans. Any animals infected with S. mutans prior to inoculation were removed from the study. The animals were then infected orally using an actively growing (mid-logarithmic) culture of S. mutans UA159 and their infection was checked via oral swabbing. Infected animals were randomly placed into four treatment groups (12 animals/group) and their teeth were treated topically using a custom-made applicator twice daily. The treatment groups included: […] Agents were applied topically (orally-delivered; 100 μL per rat) twice-daily for 3 weeks, with brief exposures (30 s) to simulate clinical use. Each group was provided with the National Institutes of Health cariogenic diet 2000 and 5% sucrose water ad libitum. The experiment proceeded for 3 weeks. All animals were weighed weekly and their physical appearance was noted daily. All animals gained weight equally among the experimental groups and remained in good health during the experimental period. […]

[5] = system: insoluble and soluble EPS; assay: EPS degradation within biofilms; assay type: cell-based, Streptococcus mutans UA159; conditions: 30 min after H2O2 exposure; vs control
Text: Biofilms were formed on saliva-coated hydroxyapatite (sHA) surfaces (tooth enamel-like material) using Streptococcus mutans, a well-established biofilm-forming, acidogenic and matrix-producing oral pathogen (FIG. 9). The hydroxyapatite discs (surface area, 2.7±0.2 cm^2) were purchased from Clarkson Chromatography and the bacteria strain, Streptococcus mutans UA159, was purchased from ATCC. The biofilm method is based on the saliva-coated hydroxyapatite (sHA) disc model (see Xiao et al., PLoS Pathog. 2012; Klein et al., J Vis Exp. 2011; Falsetta et al., Infect Immun., 2014; Koo et al., J Bacteriol, 2010; Koo et al., J Antimicrob Chemother, 2003). […] The biofilms were collected and analyzed at specific time points (19 h, 29 h and 43 h) by means of confocal fluorescence imaging, microbiological and biochemical analyses (Xiao et al., PLoS Pathog. 2012; Klein et al., J Vis Exp. 2011; Falsetta et al., Infect Immun., 2014; Koo et al., J Bacteriol, 2010; Koo et al., J Antimicrob Chemother, 2003).
To investigate whether CAT-NP-mediated H2O2 catalysis and generation of free-radicals in situ can kill embedded bacteria and degrade the EPS-matrix within biofilms, the following experiments were performed. […] Biofilms treated with CAT-NPs (0.5 mg/ml) were immediately exposed to H2O2 (0.1 to 1%, v/v) and the number of viable cells and EPS content were determined (FIG. 13A and FIG. 14). […]

Row | Compound | cytotoxic effects in gingival and palatal tissues (histopathology) [1] | biofilm disruption (accumulation of bacterial cells and EPS-matrix) [2] | degradation of glucans from GtfB and GtfD (glucose released) [3] | initiation and severity of carious lesions (caries scoring) [4] | amounts of insoluble and soluble EPS within biofilms [5]
1 | OO [H2O2, hydrogen peroxide] | no cytotoxic effects | limited anti-biofilm effects | failed to cleave either glucan | without significant effect | inability to reduce EPS within biofilms
2 | iron oxide nanoparticles [IO-NPs] | no cytotoxic effects | – | – | – | –
